Measurements published in patent publication US8859494B2, “Spirocyclically substituted 1,3-propane dioxide derivatives, processes for preparation thereof and use thereof as a medicament” (Sanofi, priority 2010, dated 2014).

What follows are compounds tested against T1, GPCR GPR40 (Rattus norvegicus, UniProt Q8K3T4) (assay: In vitro FLIPR assay with recombinant cells which express the GPCR GPR40). Conditions: recombinant HEK293 cells expressing GPR40; agonist-induced change in intracellular Ca2+ (Fluo-4, FLIPR); 100% = 10 μM reference agonist linoleic acid.
T1 construct: expressed in transfected cells; host or cells: HEK293
Format: cell-based
Method: In Vitro FLIPR Assay with Recombinant Cells which Express the GPCR GPR40
Function-testing assays were performed by means of the FLIPR technique (“Fluorescence Imaging Plate Reader”, Molecular Devices Corp.). For this purpose, agonist-induced changes were determined in the intracellular concentration of Ca^2+ in recombinant HEK293 cells which expressed the GPCR GPR40.
For the studies, cells were sown into 96-well microtiter plates (60 000 cells/well) and left to grow overnight. The medium was removed and the cells were incubated in buffer which contains the fluorescent dye Fluo-4. After this loading with dye, the cells were washed, test substance was added and changes were measured in the intracellular Ca^2+ concentration in the FLIPR instrument. Results were presented as the percentage change relative to the control (0%: no test substance added; 100%: 10 μM reference agonist linoleic acid added) and used to calculate dose/effect curves, and EC50 values were determined.

T1 sequence (Q8K3T4 whole entry): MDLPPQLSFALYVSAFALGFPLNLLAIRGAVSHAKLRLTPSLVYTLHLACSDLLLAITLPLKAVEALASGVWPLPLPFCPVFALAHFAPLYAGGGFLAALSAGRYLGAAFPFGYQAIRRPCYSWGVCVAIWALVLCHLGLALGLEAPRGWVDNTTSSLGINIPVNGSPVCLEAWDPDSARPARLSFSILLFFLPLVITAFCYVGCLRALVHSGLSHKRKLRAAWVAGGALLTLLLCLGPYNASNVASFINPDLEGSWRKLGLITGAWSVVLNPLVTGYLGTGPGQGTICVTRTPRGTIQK

Compared with `CC#CC(CC(=O)O)c1ccc(OCC2(COc3cccc(F)c3)CC2)cc1` (stereo not drawn) [Example 20, 3-{4-[1-(3-Fluorophenoxymethyl)cyclopropylmethoxy]phenyl}hex-4-ynoic acid], `CC#CC(CC(=O)O)c1ccc(OCC2(COc3cccc(C)c3)CC2)cc1` (stereo not drawn) [Example 11, 3-[4-(1-m-Tolyloxymethylcyclopropylmethoxy)phenyl]hex-4-ynoic acid] is 2.1-fold higher in EC50: 0.07 µM for the first, 0.15 µM for the second. The first is the more potent here.

Compared with `CC#CC(CC(=O)O)c1ccc(OCC2(COc3ccccc3C)CC2)cc1` (stereo not drawn) [Example 18, 3-[4-(1-o-Tolyloxymethylcyclopropylmethoxy)phenyl]hex-4-ynoic acid], `CC#CC(CC(=O)O)c1ccc(OCC2(COc3ccccc3F)CC2)cc1` (stereo not drawn) [Example 21, 3-{4-[1-(2-Fluorophenoxymethyl)cyclopropylmethoxy]phenyl}hex-4-ynoic acid] is 1.8-fold higher in EC50: 0.06 µM for the first, 0.11 µM for the second.

Going from `CC#CC(CC(=O)O)c1ccc(OCC2(COc3ccccc3)CCC2)cc1` (stereo not drawn) [Example 8, 3-[4-(1-Phenoxymethylcyclobutylmethoxy)phenyl]hex-4-ynoic acid] to `CC#CC(CC(=O)O)c1ccc(OCC2(COc3ccccc3)CC2)cc1` (stereo not drawn) [Example 10, 3-[4-(1-Phenoxymethylcyclopropylmethoxy)phenyl]hex-4-ynoic acid], the EC50 falls from 0.45 µM to 0.07 µM (6.4-fold).

Compared with `CC#CC(CC(=O)O)c1ccc(OCC2(COc3ccc(F)c(Cl)c3)CC2)cc1` (stereo not drawn) [Example 22, 3-{4-[1-(3-Chloro-4-fluorophenoxymethyl)cyclopropylmethoxy]phenyl}hex-4-ynoic acid], `CC#CC(CC(=O)O)c1ccc(OCC2(COc3ccc(C#N)c(Cl)c3)CC2)cc1` (stereo not drawn) [Example 12, 3-{4-[1-(3-Chloro-4-cyanophenoxymethyl)cyclopropylmethoxy]phenyl}hex-4-ynoic acid] is 2.4-fold lower in EC50: 0.33 µM for the first, 0.14 µM for the second.

Compared with `CC#CC(CC(=O)O)c1ccc(OCC2(COc3ccc(C(F)(F)F)cc3Cl)CC2)cc1` (stereo not drawn) [Example 15, 3-{4-[1-(2-Chloro-4-trifluoromethylphenoxymethyl)cyclopropylmethoxy]phenyl}hex-4-acid], `CC#CC(CC(=O)O)c1ccc(OCC2(COc3ccc(C(F)(F)F)cc3Cl)COC2)cc1` (stereo not drawn) [Example 4, 3-{4-[3-(2-Chloro-4-trifluoromethylphenoxymethyl)oxetan-3-ylmethoxy]phenyl}hex-4-ynoic acid] is 1.6-fold higher in EC50: 1.58 µM for the first, 2.55 µM for the second. The first is the more potent here.

First: CC#CC(CC(=O)O)c1ccc(OCC2(COc3ccc(C(F)(F)F)cc3)CC2)cc1 (stereo not drawn) [Example 2, 3-{4-[1-(4-Trifluoromethylphenoxymethyl)cyclopropylmethoxy]phenyl}hex-4-ynoic acid]
Second: CC#CC(CC(=O)O)c1ccc(OCC2(COc3ccc(C(F)(F)F)cc3)CCC2)cc1 (stereo not drawn) [Example 6, 3-{4-[1-(4-Trifluoromethylphenoxymethyl)cyclobutylmethoxy]phenyl}hex-4-ynoic acid]
The EC50 of the first is 3.6-fold lower: 0.37 µM for the first, 1.32 µM for the second. The first is the more potent here.

Going from `COC(CC(=O)O)c1ccc(OCC2(COc3ccc(C(F)(F)F)cn3)CC2)cc1` (stereo not drawn) [Example 16, 3-Methoxy-3-{4-[1-(5-trifluoromethylpyridin-2-yloxymethyl)cyclopropylmethoxy]phenyl}-propionic acid] to `CC#CC(CC(=O)O)c1ccc(OCC2(COc3ccc(C(F)(F)F)cn3)CC2)cc1` (stereo not drawn) [Example 14, 3-{4-[1-(5-Trifluoromethylpyridin-2-yloxymethyl)cyclopropylmethoxy]phenyl}hex-4-ynoic acid], the EC50 falls from 2.46 µM to 0.17 µM (14-fold).

First: CC#CC(CC(=O)O)c1ccc(OCC2(COc3cccc(C(C)(C)C)c3)CC2)cc1 (stereo not drawn) [Example 1, 3-{4-[1-(3-tert-Butylphenoxymethyl)cyclopropylmethoxy]phenyl}hex-4-ynoic acid]
Second: CC#CC(CC(=O)O)c1ccc(OCC2(COc3cccc(C(C)(C)C)c3)CCC2)cc1 (stereo not drawn) [Example 5, 3-{4-[1-(3-tert-Butylphenoxymethyl)cyclobutylmethoxy]phenyl}hex-4-ynoic acid]
The EC50 of the first is 3.5-fold lower: 0.73 µM for the first, 2.56 µM for the second.

Compared with `CC#CC(CC(=O)O)c1ccc(OCC2(COc3cccc(C)c3)CCC2)cc1` (stereo not drawn) [Example 7, 3-[4-(1-m-Tolyloxymethylcyclobutylmethoxy)phenyl]hex-4-ynoic acid], `CC#CC(CC(=O)O)c1ccc(OCC2(COc3cccc(Cl)c3)CC2)cc1` (stereo not drawn) [Example 3, 3-{4-[1-(3-Chlorophenoxymethyl)cyclopropylmethoxy]phenyl}hex-4-ynoic acid] is 5.3-fold lower in EC50: 1.54 µM for the first, 0.29 µM for the second. The second is the more potent here.

First: CC#CC(CC(=O)O)c1ccc(OCC2(COc3ccc(F)cc3)CC2)cc1 (stereo not drawn) [Example 19, 3-{4-[1-(4-Fluorophenoxymethyl)cyclopropylmethoxy]phenyl}hex-4-ynoic acid]
Second: CC#CC(CC(=O)O)c1ccc(OCC2(COc3ccc(C(F)(F)F)nc3)CC2)cc1 (stereo not drawn) [Example 13, 3-{4-[1-(6-Trifluoromethylpyridin-3-yloxymethyl)cyclopropylmethoxy]phenyl}hex-4-ynoic acid]
The EC50 of the first is 10-fold lower: 0.07 µM for the first, 0.71 µM for the second.

`CC#CC(CC(=O)O)c1ccc(OCC2(COc3cc(C(F)(F)F)cc(C(F)(F)F)c3)CC2)cc1` (stereo not drawn) [Example 9, 3-{4-[1-(3,5-Bis(trifluoromethyl)phenoxymethyl)cyclopropylmethoxy]phenyl}hex-4-ynoic acid] showed an EC50 of 1.66 µM.
